# Measurements: ChEMBL document CHEMBL1201862, “PubChem BioAssay data set” (2004)
#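 Five concentrations, 48 hours, 96-well plates. GI50 marks 50% less growth.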 The source made the active and inactive calls. Rule as the data show it: active = GI50 up to about 1.1 µM and inactive = higher.
# What was measured:
# Test in all cases: NCI anticancer screen, dose series, 48 h
# BT-549 = system: BT-549
# LXFL 529 = system: LXFL 529
# SNB-78 = system: SNB-78
# DMS-114 = system: DMS-114
# XF498 = system: XF498
# DMS-273 = system: DMS-273
# HOP-18 = system: HOP-18
# DLD-1 = system: DLD-1
# RXF 631 = system: RXF 631
smiles,measurement,setting,value
O=c1cc(-c2ccc(O)c(O)c2)oc2cc(O[C@H]3O[C@H](CO)[C@@H](O)[C@H](O)[C@H]3O)cc(O)c12,GI50,BT-549,> 100 µM (inactive)
CCN(CC)c1ccc(C(=O)c2ccccc2C(=O)O)c(O)c1,GI50,LXFL 529,> 100 µM (inactive)
same,GI50,SNB-78,> 100 µM (inactive)
same,GI50,DMS-114,> 100 µM (inactive)
same,GI50,XF498,> 100 µM (inactive)
same,GI50,DMS-273,> 100 µM (inactive)
CN(C)Cc1cc(O)c(O)c(CN(C)C)c1,GI50,BT-549,54 µM (inactive)
COc1c2c(c3c(c1CCC(=O)O)OC(C)(C)C=C3)OC(C)(C)C=C2,GI50,BT-549,> 100 µM (inactive)
CC1=C(C(=O)Nc2ccc(Cl)c(C(=O)OC(C)C)c2)SCCO1,GI50,SNB-78,99.5 µM (inactive)
same,GI50,BT-549,> 100 µM (inactive)
same,GI50,HOP-18,81.3 µM (inactive)
same,GI50,DLD-1,74 µM (inactive)
same,GI50,XF498,62.4 µM (inactive)
same,GI50,DMS-273,55.6 µM (inactive)
CCCCN(CCCC)c1ccc(/N=N/c2ccc(S(=O)(=O)O)cc2)cc1,GI50,BT-549,35.2 µM (inactive)
CCCCCC(=O)n1[nH]c(=O)n(-c2ccc(OC)cc2)c1=O,GI50,BT-549,> 100 µM (inactive)
O=C(NN1C(=O)CS(=O)(=O)C1c1ccc(C(F)(F)F)cc1)c1ccncc1 (configuration not stated),GI50,LXFL 529,> 100 µM (inactive)
same,GI50,SNB-78,> 100 µM (inactive)
same,GI50,DMS-114,> 100 µM (inactive)
same,GI50,HOP-18,> 100 µM (inactive)
same,GI50,DLD-1,> 100 µM (inactive)
same,GI50,XF498,> 100 µM (inactive)
same,GI50,DMS-273,> 100 µM (inactive)
O=C(Nc1sccc1S(=O)(=O)c1ccccc1)c1ccccc1,GI50,BT-549,> 100 µM (inactive)
Cc1oc2nc(N(C)C)n3c(C)nnc3c2c1C,GI50,BT-549,> 100 µM (inactive)
CCOC(=O)C1=CC(C)(C(=O)OCC)Nc2c(nc(OC)n(C)c2=O)N1 (configuration not stated),GI50,BT-549,> 10 µM (inactive)
CNC1NC(=O)c2ccccc2N1Cc1ccc(F)cc1 (configuration not stated),GI50,BT-549,> 100 µM (inactive)
O=[N+]([O-])/C(Cl)=C(/C(Cl)=C(Cl)Cl)N1CCOCC1,GI50,BT-549,2.46 µM (inactive)
CC(=O)Nc1ccc2nc(-c3ccccn3)c(-c3ccccn3)nc2c1,GI50,BT-549,> 100 µM (inactive)
CCCCOC(=O)CNC(=O)OCCCCC#CC#CCCCCOC(=O)NCC(=O)OCCCC,GI50,LXFL 529,> 100 µM (inactive)
same,GI50,SNB-78,> 100 µM (inactive)
same,GI50,DMS-114,> 100 µM (inactive)
same,GI50,HOP-18,69.8 µM (inactive)
same,GI50,DLD-1,> 100 µM (inactive)
same,GI50,XF498,> 100 µM (inactive)
same,GI50,DMS-273,> 100 µM (inactive)
COc1ccc(-c2nc(Nc3ccccc3)sc2Cc2sc(Nc3ccccc3)nc2-c2ccc(OC)cc2)cc1,GI50,BT-549,> 100 µM (inactive)
CN(C)C(CN)CC1=C(CC(CN)N(C)C)CCC1 (configuration not stated),GI50,SNB-78,> 100 µM (inactive)
same,GI50,DMS-114,> 100 µM (inactive)
same,GI50,HOP-18,> 100 µM (inactive)
same,GI50,DLD-1,> 100 µM (inactive)
same,GI50,XF498,> 100 µM (inactive)
same,GI50,DMS-273,> 100 µM (inactive)
C/C=C/C1(C)/C(=N\O)C(C)(CCC)C(=O)N1O (configuration not stated),GI50,LXFL 529,> 100 µM (inactive)
same,GI50,SNB-78,> 100 µM (inactive)
same,GI50,DMS-114,> 100 µM (inactive)
same,GI50,DLD-1,> 100 µM (inactive)
same,GI50,XF498,> 100 µM (inactive)
same,GI50,DMS-273,> 100 µM (inactive)
CC(=O)OCCn1c(Cc2ccc(Cl)cc2)nn(C(C)=O)c1=O,GI50,BT-549,> 100 µM (inactive)
CC1=NN(c2ccccc2Cl)C2(C1)C(Cl)C(=O)N2c1nc2ccccc2s1 (configuration not stated),GI50,BT-549,54.6 µM (inactive)
CC(C)OC(=O)C1=C2c3ncccc3C(=O)N2[C@@H](Cl)[C@H](Cl)[C@H]1Cl,GI50,BT-549,36.9 µM (inactive)
O=C(Nc1nccs1)c1cc(C2=CC=CC([N+](=O)[O-])C=C2)nc(S)n1 (configuration not stated),GI50,LXFL 529,> 100 µM (inactive)
same,GI50,SNB-78,> 100 µM (inactive)
same,GI50,DMS-114,> 100 µM (inactive)
same,GI50,HOP-18,> 100 µM (inactive)
same,GI50,DMS-273,> 100 µM (inactive)
Brc1ccccc1/C=C\C1(c2ccccc2)OCCO1,GI50,BT-549,18.3 µM (inactive)
C=C1CN(Cc2ccccc2)[C@@H]2CCCCC[C@H](C#N)[C@H]12,GI50,BT-549,> 100 µM (inactive)
O=S(=O)(O)c1ccc(O)c2ncc(Cl)cc12,GI50,BT-549,> 100 µM (inactive)
COC(=O)c1cc(C)ccc1CC(Cc1ccc(C)cc1)C(=O)OC (configuration not stated),GI50,BT-549,> 100 µM (inactive)
O=c1nc2n(cc1/C=C\Br)C1CC(O)C(CO2)O1 (configuration not stated),GI50,BT-549,> 100 µM (inactive)
CSc1ncc2c(n1)-c1ccccc1OC2N1CCCC1 (configuration not stated),GI50,BT-549,75 µM (inactive)
CC1=CC(C2/C(=N/O)C=C(C)CC2(C)C)C(O)C(C)(C)C1 (configuration not stated),GI50,BT-549,17.6 µM (inactive)
O=c1[nH][nH]c(=O)c2c1ccc1oc3ccccc3c12,GI50,BT-549,> 100 µM (inactive)
COc1cc2c(cc1OC)C(Cc1c3ccccc3cc3ccccc13)N(C)CC2 (configuration not stated),GI50,SNB-78,23.9 µM (inactive)
same,GI50,HOP-18,16.5 µM (inactive)
same,GI50,DLD-1,32.1 µM (inactive)
same,GI50,XF498,18.4 µM (inactive)
same,GI50,DMS-273,26 µM (inactive)
O=C(Nc1ccc(Cl)c(Cl)c1)C(=O)C(C(=O)c1ccccc1-c1ccccc1)C1OC(=O)c2ccccc21 (configuration not stated),GI50,LXFL 529,8.81 µM (inactive)
same,GI50,SNB-78,10.4 µM (inactive)
same,GI50,DMS-114,12.1 µM (inactive)
same,GI50,DLD-1,14.8 µM (inactive)
same,GI50,XF498,12.8 µM (inactive)
same,GI50,RXF 631,14.3 µM (inactive)
C#Cc1cc(CN(CC(=O)OC(C)(C)C)CC(=O)OC(C)(C)C)nc(CN(CC(=O)OC(C)(C)C)CC(=O)OC(C)(C)C)c1,GI50,LXFL 529,3.46 µM (inactive)
same,GI50,SNB-78,6.14 µM (inactive)
same,GI50,DMS-114,3.26 µM (inactive)
same,GI50,XF498,11.6 µM (inactive)
same,GI50,RXF 631,11.9 µM (inactive)
same,GI50,DMS-273,5.89 µM (inactive)
